According to publication PMC8196580, “Identification of Kaurane-Type Diterpenes as Inhibitors of Leishmania Pteridine Reductase I” (Molecules, 2021):
Read-outs that look alike come from different tables or passages of the source.

Assays:
L. major [1] = test: ChEMBL dataset of pIC50 values against L. major used for the RF model (Table S1); type: cell-based, Leishmania major; also: call rule not given here
L. major [2] = test system: L. major; design: method as in ChEMBL; details: ref ChEMBL, cited from earlier work
[3] = Active/Inactive class assigned to the ChEMBL pIC50 value for Random forest model construction, ref ChEMBL
[4] = ChemBL structures with pIC50 values used for Random forest model construction, L. major
[5] = Active/Inactive class assigned to ChemBL structures for Random forest model construction (Table S1)
[6] = ChemBL structures with pIC50 values used for Random forest model construction (Table S1)

| Structure (SMILES) | Outcome (L. major [1]; [3]) | pIC50 Value (L. major [2]; [4]) | Outcome (L. major [1]; [5]) | pIC50 Value (L. major [2]; [6]) |
| --- | --- | --- | --- | --- |
| O=C(c1cccs1)N1CCN(c2nnc(-c3ccc([N+](=O)[O-])o3)s2)CC1 [CHEMBL458529] | Inactive | 4.72 |  |  |
| Cc1ccc2cc(C3CC(c4sccc4Cl)=NN3)c(Cl)nc2c1 (stereo not shown) [CHEMBL2236140] |  |  | Active | 5.67 |
| Cc1ccc2cc(C3CC(c4sccc4Br)=NN3)c(Cl)nc2c1 (stereo not shown) [CHEMBL2236143] |  |  | Active | 5.68 |
| CCCCN1CN(CC(=O)OCC)CSC1=S [CHEMBL4294357] | Inactive | 4.44 |  |  |
| COc1ccccc1-c1nnc(-c2ccc(C(=O)N/N=C/c3ccccn3)cc2)o1 [CHEMBL4069827] | Active | 5.04 |  |  |
| O=[N+]([O-])c1ccc2nc(-c3cccnc3)[nH]c2c1 [CHEMBL159327] |  |  | Active | 5.48 |
| CC1=C(C(=O)/C=C/c2cccc([N+](=O)[O-])c2)C(c2ccccc2)NC(=O)N1C (stereo not shown) [CHEMBL3785174] |  |  | Active | 5.71 |
| COc1ccccc1C(=O)N/N=C/c1ccc(Cl)cc1 [CHEMBL2382045] | Inactive | 4.16 |  |  |
| COc1cc([N+](=O)[O-])ccc1COP(N)(=O)N(CCCl)CCCl (stereo not shown) [CHEMBL1256965] | Inactive | 4.81 |  |  |
| COc1ccc(OC)c(/C=C/C(=O)C2=Cc3cc(Cl)ccc3OC2)c1 [CHEMBL1095286] |  |  | Active | 5.52 |
| Clc1ccc2c(N3CCN(Cc4ccc(-c5ccccc5)cc4)CC3)ccnc2c1 [CHEMBL1256766] | Inactive | 4.49 |  |  |
| O=[N+]([O-])c1ccc2nc(-c3ccccc3[N+](=O)[O-])[nH]c2c1 [CHEMBL1481977] |  |  | Active | 5.59 |
| COc1ccccc1-c1nnc(-c2ccc(C(=O)N/N=C/c3ccccc3C)cc2)o1 [CHEMBL4072556] | Inactive | 4.47 |  |  |
| COc1ccccc1-c1nnc(-c2ccc(C(=O)N/N=C/c3ccc(Cl)cc3)cc2)o1 [CHEMBL4060153] | Inactive | 4.47 |  |  |
| Fc1ccccc1-c1nc2ccccn2c1-c1cccnc1 [CHEMBL2151877] | Inactive | 4.46 |  |  |
| C#CCOc1ccc(/C=N/NC(N)=S)cc1OC [CHEMBL4159578] |  |  | Active | 5.85 |
| CCC(=O)N1CCCCC1[C@](C)(O)[C@H]1CC[C@H]2[C@@H]3CC[C@H]4C[C@@H](O)CC[C@]4(C)[C@H]3CC[C@@]21C (stereo partly shown) [CHEMBL1214310] | Inactive | 4.27 |  |  |
| COC(=O)c1ccc(/C=N/NC(=O)c2ccccc2OC)cc1 [CHEMBL2382031] | Inactive | 4.81 |  |  |
| O=[N+]([O-])c1ccc(-c2nnc(NCc3cn(Cc4cccc(Cl)c4Cl)nn3)s2)o1 [CHEMBL1951533] | Inactive | 3.99 |  |  |
| CC(C)c1ccc(-c2nc3cc([N+](=O)[O-])ccc3[nH]2)cc1 [CHEMBL2297904] |  |  | Active | 5.55 |
| CC(=O)CCCCCCCCCC[C@H]1CC[C@@H](O)[C@@H](C)N1 [CHEMBL2262843] | Active | 5.27 |  |  |

| Structure (SMILES) | Outcome (L. major [1]; [3]) | pIC50 Value (L. major [2]; [4]) | Outcome (L. major [1]; [5]) | pIC50 Value (L. major [2]; [6]) |
| --- | --- | --- | --- | --- |
| CC(=O)N1CCN(c2nnc(-c3ccc([N+](=O)[O-])o3)s2)CC1 [CHEMBL192375] |  |  | Active | 5.96 |
| Cc1ccccc1Cc1nnc2sc(-c3ccc(Cl)cc3)nn12 [CHEMBL1256802] | Inactive | 4.00 |  |  |
| CC(=O)Oc1ccc(OC(C)=O)c2c1CC1(C)CCC(=O)C(C)=C1C2=O (stereo not shown) [CHEMBL255869] | Inactive | 3.65 |  |  |
| CCCC/C=C/C=C/c1nc2ccccc2n2cccc12 [CHEMBL3260214] |  |  | Active | 5.43 |
| COc1ccccc1C(=O)N/N=C/c1ccc(O)cc1O [CHEMBL2382048] | Inactive | 4.05 |  |  |
| Clc1cccc(-c2nc3ccccn3c2-c2ccccc2)c1 [CHEMBL2151878] |  |  | Active | 5.36 |
| O=C(/C=C/C1=Cc2cc(Cl)ccc2OC1)c1ccc(Cl)cc1Cl [CHEMBL1097966] |  |  | Active | 5.72 |
| OC(Cn1cncn1)(Cn1cncn1)c1ccc(F)cc1F [CHEMBL106] | Inactive | 3.79 |  |  |
| CCC/C=C/C=C/c1nc2cccc(OC)c2n2cccc12 [CHEMBL3260213] |  |  | Active | 5.41 |
| COc1ccc(/C=N/NC(=O)c2ccc(-c3nnc(-c4ccccc4OC)o3)cc2)cc1 [CHEMBL4099467] | Inactive | 4.13 |  |  |
| COc1c2c(cc(O)c1-c1c(C)cc3cccc(OC)c3c1O)C[C@H](C)N=C2C [CHEMBL221884] | Inactive | 4.48 |  |  |
| Cc1ccc(N2C(=O)C(c3ccc(C)cc3)(c3ccc(C)cc3)C2c2cn(C)c3ccccc23)cc1 (stereo not shown) [CHEMBL2071565] |  |  | Active | 5.89 |
| O=[N+]([O-])c1ccc(Cn2cc(CNc3nnc(-c4ccc([N+](=O)[O-])o4)s3)nn2)cc1 [CHEMBL1951531] | Inactive | 4.49 |  |  |
| Cc1csc(C2=NNC(c3cc4ccc(C)cc4nc3Cl)C2)c1 (stereo not shown) [CHEMBL2236137] |  |  | Active | 5.59 |
| COc1cc(C)c(-c2ccc(O)c3c2C[C@@H](C)N[C@@H]3C)c2cccc(O)c12 [CHEMBL375542] | Inactive | 4.44 |  |  |
| COc1c(O)ccc2c1C(=O)C(C)=CC2=O [CHEMBL2071233] | Inactive | 4.03 |  |  |
| NP(=O)(OCc1ccc([N+](=O)[O-])c(F)c1)N(CCCl)CCCl (stereo not shown) [CHEMBL1256990] | Active | 5.04 |  |  |
| C/C=C(\C)C(=O)N[C@H]1CC[C@]2(C)[C@H]3CC[C@]4(C)[C@@H]([C@H](C)NC)CC[C@H]4[C@@H]3CC[C@H]2[C@H]1OC(C)=O [CHEMBL504924] |  |  | Active | 5.82 |
| O=C(/C=C/c1ccc(-n2ccnc2)cc1)c1ccc(Br)cc1 [CHEMBL570693] |  |  | Active | 5.61 |
| Cc1ccc2cc(C3CC(c4sccc4C)=NN3)c(Cl)nc2c1 (stereo not shown) [CHEMBL2236136] |  |  | Active | 5.65 |
| COc1cc(OC)c2c(C)[n+](-c3cccc4ccccc34)c(C)cc2c1.F[B-](F)(F)F [CHEMBL479641] |  |  | Active | 5.79 |

| Structure (SMILES) | Outcome (L. major [1]; [3]) | pIC50 Value (L. major [2]; [4]) | Outcome (L. major [1]; [5]) | pIC50 Value (L. major [2]; [6]) |
| --- | --- | --- | --- | --- |
| COc1ccc(/C=N/NC(=O)c2ccc(-c3nnc(-c4ccccc4OC)o3)cc2)c(O)c1 [CHEMBL4090407] | Active | 5.18 |  |  |
| CCC/C=C/C=C/c1nc2cc(OC)ccc2n2cccc12 [CHEMBL3260211] |  |  | Active | 5.55 |
| COc1ccccc1C(=O)N/N=C/c1cc(O)c(O)c(O)c1 [CHEMBL2382033] | Inactive | 4.50 |  |  |
| CC(C)C1=CC(=O)C2=C(CC[C@H]3C(C)(C)CCC[C@]23C)C1=O [CHEMBL3355361] |  |  | Active | 6.74 |
| CN(C)Cc1ccc(Nc2c3ccc(Cl)cc3nc3cc(Cl)ccc23)cc1 [CHEMBL36404] |  |  | Active | 5.70 |
| Cn1c([N+](=O)[O-])cnc1-c1nnc(N2CCN(C(=O)c3ccc(Cl)cc3)CC2)s1 [CHEMBL520958] | Inactive | 4.37 |  |  |
| O=[N+]([O-])c1ccc2nc(-c3ccccc3)[nH]c2c1 [CHEMBL1164403] |  |  | Active | 5.48 |
| C[C@@H]1[C@H](O)[C@@H](C)/C=C/C=C/C=C/C=C/C=C/C=C/C=C/[C@H](O[C@@H]2O[C@H](C)[C@@H](O)[C@H](N)[C@@H]2O)C[C@@H]2O[C@](O)(C[C@@H](O)C[C@@H](O)[C@H](O)CC[C@@H](O)C[C@@H](O)CC(=O)O[C@H]1C)C[C@H](O)[C@H]2C(=O)O [CHEMBL267345] | Inactive | 3.27 |  |  |
| CCCCCCN(C)c1ccc(Nc2c3ccc(Cl)cc3nc3ccc(OC)cc23)cc1 [CHEMBL315133] |  |  | Active | 5.74 |
| CC(=O)C1=C(C)NC(=O)NC1c1cccc([N+](=O)[O-])c1 (stereo not shown) [CHEMBL3785264] |  |  | Active | 5.61 |
| COc1ccccc1-c1nnc(-c2ccc(C(=O)N/N=C/c3cc(O)c(O)cc3O)cc2)o1 [CHEMBL4098126] |  |  | Active | 6.01 |
| O=C(/C=C/C1=Cc2cc(Cl)ccc2OC1)c1ccccc1Cl [CHEMBL1097965] |  |  | Active | 5.91 |
| CCn1nc(C)cc1-c1nnc2sc(Cc3c(F)cccc3Cl)nn12 [CHEMBL1256857] | Inactive | 4.00 |  |  |
| COc1cc(C)cc2c1C(=O)C=C(c1c(C)cc3ccc(O)c(OC)c3c1O)C2=O [CHEMBL2071226] |  |  | Active | 9.74 |
| COc1cc(OC)c2c(C)[n+](-c3ccc4scnc4c3)c(C)cc2c1.F[B-](F)(F)F [CHEMBL515117] | Inactive | 4.00 |  |  |
| Cn1cc(/C=N/C(c2ccccc2)c2ccccc2)c2ccccc21 [CHEMBL2071556] |  |  | Active | 5.73 |
| O=C(/C=C/c1ccc(O)cc1)c1ccccc1 [CHEMBL7747] |  |  | Active | 5.40 |
| C[C@@H]1CC[C@H]2[C@@H](C)C(=O)O[C@@H]3O[C@@]4(C)CC[C@@H]1[C@]32OO4 [CHEMBL269671] |  |  | Active | 6.12 |
| CN[C@@H](C)[C@H]1CC[C@H]2[C@@H]3CC[C@H]4[C@@H](OC(C)=O)[C@@H](NC(=O)C=C(C)C)CC[C@]4(C)[C@H]3CC[C@]12C [CHEMBL504923] |  |  | Active | 5.48 |
| O=C(CCl)N(c1ccccc1)c1ccccc1 [CHEMBL1603760] | Inactive | 4.39 |  |  |
